The source of these data is US20180008629A1, “Compositions and Methods for Treating NLRP3 Inflammasome-Related Diseases and Disorders” (priority 2015, published 2018).

For data set [1], the target named is T1, NLRC4 (Mus musculus, UniProt Q3UP24).
T1 construct: endogenous in cells; host or cells: mouse BMDMs infected with Salmonella typhimurium (SL1344)
Format: cell-based. As to conditions: BMDMs infected with Salmonella typhimurium, 0, 1, 5, or 10 mM BHB.

Data set [2] in a line: Gout induced by intra-articular injection of MSU in rats fed ketogenic diet. As to conditions: ketogenic diet 1 week. Format: in vivo, rat. As for the experimental part:
Rats were fed a ketogenic diet for 1 week prior to the induction of gout by intra-articular injection of MSU. Blood BHB levels were measured in rats after 1 week ketogenic diet feeding, prior to injection with MSU (FIG. 21A). Knee thickness was measured daily (FIG. 21B). The increase in knee swelling relative to baseline thickness was measured 2 days after gout induction (FIG. 21C). Serum IL-1β was measured by ELISA on day 2 post-MSU injection (FIG. 21D).

For data set [3], the target named is AIM2 inflammasome (Mus musculus, UniProt Q91VJ1). Format: cell-based.
Sequence of AIM2 inflammasome (Q91VJ1 whole entry, looked up): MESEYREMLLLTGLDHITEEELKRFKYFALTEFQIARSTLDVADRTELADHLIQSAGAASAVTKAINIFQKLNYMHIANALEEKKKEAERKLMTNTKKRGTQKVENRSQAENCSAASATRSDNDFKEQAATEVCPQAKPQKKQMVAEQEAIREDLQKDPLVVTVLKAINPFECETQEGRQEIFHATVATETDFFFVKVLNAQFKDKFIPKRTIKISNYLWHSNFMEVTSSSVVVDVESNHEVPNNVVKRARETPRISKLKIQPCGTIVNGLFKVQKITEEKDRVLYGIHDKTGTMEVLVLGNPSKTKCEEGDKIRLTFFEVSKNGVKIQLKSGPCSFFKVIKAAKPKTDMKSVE
The conditions of data set [4]: due to increased clearance; literature; cited from earlier work.
The target of data set [5] is T2, ASC (Mus musculus, UniProt Q9EPB4).
T2 construct: endogenous in cells; host or cells: mouse BMDMs primed with LPS and stimulated with ATP
T2 sequence (Q9EPB4 1-193): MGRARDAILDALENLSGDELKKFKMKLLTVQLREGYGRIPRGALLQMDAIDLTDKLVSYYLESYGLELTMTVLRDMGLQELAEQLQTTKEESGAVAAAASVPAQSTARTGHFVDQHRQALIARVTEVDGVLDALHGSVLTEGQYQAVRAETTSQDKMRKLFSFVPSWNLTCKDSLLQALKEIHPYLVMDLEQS
Nature of the data set: ASC oligomerization and ASC speck formation in BMDMs. Format: cell-based. As for the experimental part: The ASC oligomerization was performed using previously described methods (Yu et al., 2006, Cell. Death Differ. 13:236-249). BMDM were plated on chamber slides and allowed to attach overnight. The following day cells were primed with LPS and treated with ATP±BHB (10 mM) as described in the materials and methods. Cells were fixed with 4% paraformaldehyde followed by ASC (Enzo Lifesciences) and DAPI staining. ASC specks were quantified using ImageJ software. At least 5 distinct fields were analyzed and a minimum of 550 cells from each treatment condition were quantified. Data are shown as mean±SD and are representative of two independent experiments. Statistical differences were calculated by student's t-test.

For data set [6], the target named is NLRP3 inflammasome (Mus musculus, UniProt Q8R4B8). Nature of the data set: NLRP3 inflammasome activation in LPS primed BMDMs (caspase-1 / IL-1β immunoblot). Set-up: endogenous in cells; host or cells: mouse bone marrow derived macrophages (A1). Format: cell-based.
Sequence of NLRP3 inflammasome (Q8R4B8 whole entry): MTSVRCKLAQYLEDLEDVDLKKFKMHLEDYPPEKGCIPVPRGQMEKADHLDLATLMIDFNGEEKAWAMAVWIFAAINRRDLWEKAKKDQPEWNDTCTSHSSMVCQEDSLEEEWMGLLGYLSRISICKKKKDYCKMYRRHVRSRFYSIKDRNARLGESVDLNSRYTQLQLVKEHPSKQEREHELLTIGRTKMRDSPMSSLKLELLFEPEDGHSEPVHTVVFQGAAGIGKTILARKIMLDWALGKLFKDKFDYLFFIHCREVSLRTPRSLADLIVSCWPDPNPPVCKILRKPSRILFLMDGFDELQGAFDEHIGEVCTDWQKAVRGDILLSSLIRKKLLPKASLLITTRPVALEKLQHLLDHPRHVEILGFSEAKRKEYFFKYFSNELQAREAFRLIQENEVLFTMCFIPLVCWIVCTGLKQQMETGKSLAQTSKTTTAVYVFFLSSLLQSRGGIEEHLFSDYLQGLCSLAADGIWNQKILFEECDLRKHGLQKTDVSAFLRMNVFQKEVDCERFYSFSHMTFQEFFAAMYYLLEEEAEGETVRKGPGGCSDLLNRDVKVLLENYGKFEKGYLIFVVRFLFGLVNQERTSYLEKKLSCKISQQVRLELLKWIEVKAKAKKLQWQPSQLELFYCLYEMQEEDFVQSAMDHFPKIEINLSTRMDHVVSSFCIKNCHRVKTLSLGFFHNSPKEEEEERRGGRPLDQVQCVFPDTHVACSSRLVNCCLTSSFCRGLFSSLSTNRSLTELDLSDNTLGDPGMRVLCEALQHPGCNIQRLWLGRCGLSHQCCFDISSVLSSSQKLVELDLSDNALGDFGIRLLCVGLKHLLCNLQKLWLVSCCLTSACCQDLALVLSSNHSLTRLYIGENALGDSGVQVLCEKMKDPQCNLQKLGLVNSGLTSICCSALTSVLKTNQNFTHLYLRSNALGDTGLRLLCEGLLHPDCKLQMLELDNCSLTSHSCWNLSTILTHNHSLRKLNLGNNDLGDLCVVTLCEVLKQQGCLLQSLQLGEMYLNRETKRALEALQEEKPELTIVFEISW
Description: All steps were performed using sterile technique. Femurs were collected in RPMI (Life Technologies, Grand Island, N.Y.)+5% FBS (R5; Omega Scientific, Tarzana, Calif.). Both ends of the femur were then cut and the femur was flushed with R5. The bone marrow was centrifuge at 450 g for 5 min, the supernatant was decanted and red blood cells were lysed using ACK lysis buffer (Quality Biological, Gaithersburg, Md.). After neutralization with R5, bone marrow cells were centrifuged, resuspended in 10 ml of R5 and placed into a 6 well plate. Non-adherent cells were collected the following morning. The non-adherent cells were resuspended at 4×10^6 cells/ml in media consisting of 10 ml supernatant of non-adherent cells, 7.2 ml L929 conditioned media, 6.8 ml R5 and MCSF (long/ml; R&D Systems, Minneapolis, Minn.). An additional 2 ml of fresh media was added 4 d after isolation. Non-adherent cells were collected on day 7, separated by density gradient separation using Fico/Lite (Atlanta Biologicals, Flowery Branch, Ga.) and mononuclear cells were collected. Cells were rinsed twice with Dulbecco's PBS+2% FBS, and resuspended at 1×10^6 cells/ml. Cells were treated with ultrapure LPS (Invivogen, San Diego, Calif.) alone or in combination with 5 mM ATP (Sigma, St. Louis, Mo.) or 200 μM palmitate-BSA (Sigma). The BMDMs were also primed with ultrapure lipid A (10 μg/ml; Invivogen, San Diego, Calif.), lipoteichoic acid (10 μg/ml; Invivogen), or Pam3-CSK4 (10 μg/ml; Invivogen) for 4 hour and stimulated with various NLRP3 activators (ATP 5 mM; Sigma, MSU 250 ug/ml; Invivogen, Silica; 200 ug/ml; Invivogen, sodium palmitate; 200 μM; Sigma, ceramide C6 80 μg/ml; Cayman, and sphingosine 40 μM; Cayman, Ann Arbor, Mich.) for 1 hour together with D-BHB or L-(BHB) at indicated concentration. The cell supernatants and cell lysates were collected 1 h after BHB treatment and analyzed for caspase-1 and IL-1β.
The BMDM cell lysates were prepared using RIPA buffer and immediately snap frozen in liquid nitrogen. Samples were left on ice for 1 hour with vortexing every 10 min. Samples were then centrifuge at 14,000 g for 15 min, the supernatant was collected and the protein concentration was determined using the DC Protein Assay (Bio-RAD). […] The immune complexes were visualized by incubation with horseradish peroxidase-conjugated anti-rat or anti-rabbit secondary antibody (Amersham Biosciences). Immunoreactive bands were visualized by enhanced chemiluminescence (PerkinElmer Life Sciences).
Data set [7] has as its system neutrophil hyperactivation. Nature of the data set: MSU peritonitis model in old mice fed ketogenic diet. In kind it is in vivo, mouse. As to conditions: ketogenic diet one week prior to MSU challenge. As to the method: Old mice were fed a ketogenic diet for one week prior to MSU challenge to induce neutrophil infiltration and inflammasome activation (FIG. 16A). Body weights and blood BHB concentrations were measured daily. Four hours after MSU injection, total peritoneal cells were collected and analyzed by FACS to enumerate total neutrophil infiltration (FIG. 16B). Gene expression within peritoneal cells was measured by RT-PCR (FIG. 16C). Expression was normalized to Gapdh expression and data are represented as expression relative to adults. Data are pooled from two independent experiments (FIGS. 16B and 16C). Statistical differences were calculated by 2-way ANOVA (FIG. 16A) or 1-way ANOVA (FIG. 16B). […]
Mice were fed a ketogenic diet for 1 week prior to an increase in BHB levels and then infection or peritonitis was induced by injection of monosodium urate. Body weights and blood BHB concentrations were measured daily in old mice during ketogenic diet feeding, prior to MSU injection (FIG. 19A). […] The peritoneal cells were isolated and pro-inflammatory cytokine Il1b, Nlrp3 and Tnf gene expression was measured by RT-PCR (FIG. 19B). […] Blood BHB levels were measured in adult mice 24 hr post-infection with Staphylococcus aureus (FIG. 19C). Total cells collected from brocho-aleveolar lavage BAL fluid from lungs 24 hr post-infection were quantified (FIG. 19D). […]

Data set [8] deals with H3 acetylation. Nature of the data set: H3 acetylation in LPS primed BMDMs (western blot). Format: cell-based, mouse. As to conditions: LPS primed BMDMs treated with ATP and BHB 1 h. As to the method:
FIG. 5, comprising FIGS. 5A-5B, depicts data from experiments examining the mechanism of BHB's anti-inflammasome effects. FIG. 5A is a representative western blot analysis of caspase-1 in BMDMs primed with LPS for 4 hours and stimulated with 2DG, AICAR, Compound C and BHB for 1 h on indicated combinations. FIG. 5B is a representative western blot examining H3 acetylation in LPS primed BMDMs treated with ATP and S- or D-BHB (R-BHB) for 1 h.
The BMDM cell lysates were prepared using RIPA buffer and immediately snap frozen in liquid nitrogen. Samples were left on ice for 1 hour with vortexing every 10 min. Samples were then centrifuge at 14,000 g for 15 min, the supernatant was collected and the protein concentration was determined using the DC Protein Assay (Bio-RAD). The immunoblot analysis was performed using previously described methods (Vandanmagsar et al., 2011, Nat. Med. 17:179-188). The immune complexes were visualized by incubation with horseradish peroxidase-conjugated anti-rat or anti-rabbit secondary antibody (Amersham Biosciences). Immunoreactive bands were visualized by enhanced chemiluminescence (PerkinElmer Life Sciences).
(In general: Immunoblotting shows a protein as a band on a membrane.)

T1 sequence (Q3UP24 whole entry): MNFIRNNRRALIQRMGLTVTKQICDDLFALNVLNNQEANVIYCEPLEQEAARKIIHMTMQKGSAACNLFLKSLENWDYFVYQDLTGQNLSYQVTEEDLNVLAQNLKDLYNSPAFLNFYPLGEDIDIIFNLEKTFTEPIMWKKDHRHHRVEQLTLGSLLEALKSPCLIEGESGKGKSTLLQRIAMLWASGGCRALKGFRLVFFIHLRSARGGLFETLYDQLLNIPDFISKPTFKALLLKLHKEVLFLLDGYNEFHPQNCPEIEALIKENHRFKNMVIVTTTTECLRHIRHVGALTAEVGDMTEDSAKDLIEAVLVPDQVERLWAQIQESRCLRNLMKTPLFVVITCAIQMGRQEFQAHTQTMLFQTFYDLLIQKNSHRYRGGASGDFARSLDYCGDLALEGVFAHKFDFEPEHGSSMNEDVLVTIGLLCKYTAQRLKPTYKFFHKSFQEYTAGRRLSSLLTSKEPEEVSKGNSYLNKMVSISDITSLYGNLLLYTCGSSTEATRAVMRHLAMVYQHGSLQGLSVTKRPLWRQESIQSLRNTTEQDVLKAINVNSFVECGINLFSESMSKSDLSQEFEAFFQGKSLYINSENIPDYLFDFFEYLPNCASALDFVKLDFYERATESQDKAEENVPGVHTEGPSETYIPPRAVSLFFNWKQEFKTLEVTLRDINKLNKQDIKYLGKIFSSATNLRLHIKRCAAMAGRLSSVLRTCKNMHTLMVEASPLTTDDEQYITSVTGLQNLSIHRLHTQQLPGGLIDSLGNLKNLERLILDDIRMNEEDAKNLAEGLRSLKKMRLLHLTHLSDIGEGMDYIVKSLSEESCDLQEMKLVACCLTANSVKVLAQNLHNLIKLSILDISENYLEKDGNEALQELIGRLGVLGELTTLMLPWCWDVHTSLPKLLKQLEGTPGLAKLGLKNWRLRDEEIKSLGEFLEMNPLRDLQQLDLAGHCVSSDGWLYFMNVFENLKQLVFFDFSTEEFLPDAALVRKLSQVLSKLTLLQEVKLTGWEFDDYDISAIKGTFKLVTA

For the molecule `CC(O)CC(=O)O` (stereo not drawn) [BHB, β-hydroxybutyrate], the “NLRC4 mediated caspase-1 cleavage” value in data set [1] is on record as “did not inhibit”. The Gout-induced inflammation entry in data set [2] is “protect”. For the same molecule, in data set [3], the “AIM2 inflammasome induced IL-1β activation” value is “did not inhibit”. Besides, the “serum concentration after administration” value in data set [4] was “insufficient to achieve sustained high serum concentration”. For the same molecule, the “ASC oligomerization in response to NLRP3 ligand ATP” value in data set [5] (BMDMs primed with LPS (4 h), ATP and BHB 1 h, DSS cross-linked ASC) is listed as “prevented”. Also, the ASC speck formation entry in data set [5] (BMDMs, LPS+ATP, BHB (10 mM)) is reported as “prevented”. For the same molecule, the “BHB's inhibitory effects on the inflammasome in macrophages lacking Atg5” value in data set [6] (Atg5 deficient BMDMs, LPS, ATP, BHB (10 mM)) was “not required”. The “ATP-induced caspase-1 activation without involvement of AMPK” value in data set [6] (BHB (10 mM) with AICAR 2 mM or Compound C 25 μM) is “suppressed”. In addition, in data set [6] (BHB with AICAR or Compound C), the “ATP-induced IL-1β activation without involvement of AMPK” value is given as “suppressed”. Moreover, the “inflammasome activation after priming with Pam3-CSK4” value in data set [6] (BMDMs primed with TLR1/2 ligand Pam3-CSK4 4 h, ATP and BHB 1 h) was “effectively suppressed”. The “inflammasome activation after priming with lipoteichoic acid (LTA)” value in data set [6] (BMDMs primed with TLR2 agonist LTA 4 h, ATP and BHB 1 h) is “effectively suppressed”. Further, the “inflammasome activation after priming with lipid A” value in data set [6] (BMDMs primed with TLR4 agonist lipid A 4 h, ATP and BHB 1 h) is given as “effectively suppressed”. In addition, the “BHB's anti-inflammasome effects in BMDMs deficient in GPR109a” value in data set [6] (Gpr109a deficient BMDMs, LPS and ATP, BHB (10, 20 mM)) is recorded as “could not be abrogated”. In data set [6] (LPS primed BMDMs, ATP and BHB for 60 minutes), the “processing of biologically active p17 form of IL-1β” value is reported as “dose-dependently inhibited”. The “ATP-induced caspase-1 cleavage” value in data set [6] (LPS primed BMDMs, ATP and BHB for 60 minutes, Western blot of p20) is listed as “dose-dependently inhibited”. Besides, the “inflammasome activation by ceramides” value in data set [6] (LPS primed BMDMs, C6 ceramide 6 h (80 μg/ml)) is “blocked”. In addition, the “monosodium urate (MSU) crystals induced caspase-1 activation” value in data set [6] (LPS primed BMDMs, MSU) was “inhibited”. In addition, the “inflammasome activation by nigericin” value in data set [6] (LPS primed BMDMs, nigericin (10 μM) 1 h) was “blocked”. Further, in data set [6] (LPS primed BMDMs, palmitate (200 μM) 12 h), the “inflammasome activation by palmitate” value is recorded as “blocked”. Also, the “inflammasome activation by silica particles” value in data set [6] (LPS primed BMDMs, silica 1 hour) is reported as “blocked”. Moreover, in data set [6] (LPS primed BMDMs, sphingosine (50 μM) 1 h), the “inflammasome activation by sphingosine” value is reported as “blocked”. Also, the “BHB's inhibitory effects on NLRP3 activation after ablation of Sirt2 or UCP2” value in data set [6] (Sirt2−/− or Ucp2−/− BMDMs, LPS and ATP, BHB (10 mM) 1 h) was “did not control”. Further, the “neutrophil hyperactivation in peritonitis” value in data set [7] was “prevented”. In addition, the “H3 acetylation in macrophages” value in data set [8] is given as “inducing”.
